# Patent publication US20080234188A1, “Antimicrobial Peptides” (The Hospital for Sick Children, priority 2001, published 2008)
# Where a SMILES comes first, the peptide text is derived from it.
# Legend:
# B. subtilis ATCC6633 = type: cell-based, Bacillus subtilis
# Source text: (§1) The bacterial strains used were E. coli C498, E. coli C500, Escherichia coli UB1005 and its antibiotic supersusceptible derivative DC2 (22); a clinical isolate of Staphylococcus epidermidis (C621); coryneform bacterial strain Corynebacterium xerosis (C875); and E. coli ATCC 25922, Staphylococcus aureus ATCC 25923, Enterococcus faecalis ATCC 29212, Bacillus subtilis ATCC 6633 and Pseudomonas aeruginosa ATCC 27853, all from American Type Culture Collection.
# (§2) Peptide antibacterial activity was assessed by the method of R. Hancock et al. (Wu & Hancock (1999), J. Biol. Chem., v. 274, pp. 29-35). Test strains of bacteria from Mueller Hinton agar (MHA) plates were inoculated into 5 ml Mueller Hinton Broth (MHB) in tubes and grown overnight at 37° C. on a shaker (180 rpm). Serial dilutions of test peptides (at 10 times the required test concentrations) were made in 0.01% acetic acid, 0.2% BSA, in polypropylene or coated glass tubes as follows: the test peptide was (a) dissolved in distilled water at 20 times the required maximum concentration (enough final volume for all tests to be performed on a given day); (b) diluted into an equal volume of 0.02% acetic acid, 0.4% BSA to give 10 times the required maximum concentration; (c) serial doubling dilutions were performed in 0.01% acetic acid, 0.2% BSA to provide serial dilutions of peptides at 10 times the required test concentrations, e.g., 640, 320, 160, . . . 2.5 μg/ml. (No deleterious effects of long-term storage of peptides in these media have been detected). Overnight bacterial cultures were diluted in MHB to give 2−7×10^5 colony forming units/ml. Bacterial suspension (100 μl) was dispensed in each well; controls without bacteria were maintained in parallel. To each well was added 11 μl of 10× test peptide and plates were incubated at 37° C. for 18-24 hours, and checked again at 40-48 hours. Plates were read visually and at 600 nm in a microplate reader (Molecular Devices).
# (§3) A further number of the peptides of the invention were tested for antimicrobial activity against a range of Gram-positive and Gram-negative bacteria by the assay described immediately before Example 1.
# Human RBC = type: cell-based
# Outline: (§4)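 Washed rabbit or human erythrocytes (4% v/v in PBS pH 7.3) incubated with peptide dilutions 1 h at 37° C. Hemoglobin release read at 540 nm in supernatant, relative to PBS control and 0.1% Triton X-100 as 100% lysis; peptides tested at […].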
# Rabbit RBC = type: cell-based
# Outline: as §4
# E. faecalis ATCC29212 = type: cell-based, Enterococcus faecalis
# Source text: as §1, §2, §3
# S. aureus ATCC25923 = type: cell-based, Staphylococcus aureus
# Source text: as §1, §2, §3
# E. coli DC2 = assay: Assay of antibacterial activity (MIC), E. coli DC2; type: cell-based, Escherichia coli
# Outline: (§5)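 Overnight cultures were diluted in Mueller Hinton broth to 2−7×10^5 CFU/ml and mixed with serially doubled peptides prepared in 0.01% acetic acid with 0.2% BSA. Plates were incubated at 37° C for 18-24 hours, checked again at 40-48 hours, and read by eye and at 600 nm.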
# E. coli ATCC25922 = type: cell-based
# Source text: as §1, §2, §3
# [1] = tested on: Staphylococcus epidermidis (C621); type: cell-based; settings: C621
# Outline: (§6)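 Broth microdilution in Mueller Hinton Broth, inoculum 2−7×10^5 CFU/ml. Peptides serially doubled in 0.01% acetic acid, 0.2% BSA and added at 10× final concentration. Incubation 37° C for 18-24 h, rechecked at 40-48 h; growth read visually and at 600 nm.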
# [2] = tested on: Corynebacterium xerosis (C875); type: cell-based
# Outline: as §6
# P. aeruginosa ATCC27853 = type: cell-based, Pseudomonas aeruginosa
# Source text: as §1, §2, §3
# [3] = tested on: C500: E. coli, antibiotic strain; type: cell-based; settings: C500: , antibiotic strain
# Outline: (§7)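 Broth microdilution in Mueller Hinton Broth, 2−7×10^5 CFU/ml, peptides added from 10× stocks serially diluted in 0.01% acetic acid, 0.2% BSA. Incubated at 37° C for 18-24 hours, rechecked at 40-48 hours; growth read visually and at 600 nm.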
# [4] = tested on: C498: E. coli, wild type strain; type: cell-based; settings: C498: , wild type strain
# Outline: as §7
# E. coli UB1005 = type: cell-based, Escherichia coli; settings: UB1005
# Outline: as §5
smiles,measurement,setting,value
C[C@H](NC(=O)[C@H](C)NC(=O)[C@H](C)NC(=O)[C@H](Cc1ccccc1)NC(=O)[C@H](C)NC(=O)[C@H](C)NC(=O)[C@H](C)NC(=O)[C@H](CCCCN)NC(=O)[C@@H](N)CCCCN)C(=O)N[C@@H](C)C(=O)N[C@@H](C)C(=O)N[C@@H](Cc1ccccc1)C(=O)N[C@@H](C)C(=O)N[C@@H](C)C(=O)N[C@@H](Cc1c[nH]c2ccccc12)C(=O)N[C@@H](C)C(=O)N[C@@H](C)C(=O)N[C@@H](Cc1ccccc1)C(=O)N[C@@H](C)C(=O)N[C@@H](C)C(=O)N[C@@H](C)C(=O)N[C@@H](CCCCN)C(=O)N[C@@H](CCCCN)C(=O)N[C@@H](CCCCN)C(=O)N[C@@H](CCCCN)C(N)=O [Peptide F25] (H-KKAAAFAAAAAFAAWAAFAAAKKKK-NH2; N-terminus assumed),MIC B. subtilis ATCC6633,B. subtilis ATCC6633,1 µM
same,Human RBC (% lysis) 50 μM,Human RBC,0 % lysis
same,Human RBC (% lysis) 200 μM,Human RBC,1 % lysis
same,Rabbit RBC (% lysis) 50 μM,Rabbit RBC,0 % lysis
same,Rabbit RBC (% lysis) 200 μM,Rabbit RBC,4 % lysis
same,MIC E. faecalis ATCC29212,E. faecalis ATCC29212,>32 µM
same,MIC S. aureus ATCC25923,S. aureus ATCC25923,>32 µM
same,MIC E. coli DC2,"E. coli DC2; Table 3, Gram-negative",4 µM
same,MIC E. coli DC2,E. coli DC2; Table 5A,4 µM
same,MIC E. coli ATCC25922,E. coli ATCC25922,>32 µM
same,MIC C621,[1],0.5 to 2 µM
same,MIC S. epidermidis C621,[1],2 µM
same,MIC C875,[2],0.25 µM
same,MIC C. xerosis C875,[2],<0.25 µM
same,MIC P. aeruginosa ATCC27853,P. aeruginosa ATCC27853,8 µM
same,MIC C500,[3],4 µM
same,MIC C498,[4],8 µM
same,MIC E. coli UB1005,E. coli UB1005,16 µM
